T/C data for 28 compounds are collected here from PubChem BioAssay AID330 (DTP/NCI, 2004).

Values joined by “and” are separate entries in the source; they are usually repeats but may differ in a detail not shown here. Identical values can stand only once. Inconclusive results and toxic doses are left out.

The assay has as its system P388 leukemia ip, CD2F1 mice, survival T/C. The experiment in a line: NCI In Vivo Anticancer Drug Screen. Data for tumor model P388 Leukemia (intraperitoneal) in CD2F1 (CDF1) mice. The note with it: endpoint: median survival time, higher = longer survival. An outline of the steps: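 Mice carrying the transplanted tumor received test compound or vehicle. Survival was recorded in each group, and the value is the treated-group measurement divided by that of the vehicle-treated control group.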

[1] abbreviates: dose: 60.0 mg/kg/injection, schedule: Q01DX005 (ip), vehicle: Klucel (hydroxypropylcellulose) (HPC).
[2] abbreviates: dose: 120.0 mg/kg/injection, schedule: Q01DX005 (ip), vehicle: Klucel (hydroxypropylcellulose) (HPC).
[3] abbreviates: dose: 240.0 mg/kg/injection, schedule: Q01DX005 (ip), vehicle: Klucel (hydroxypropylcellulose) (HPC).
Where [4] appears, read: dose: 60.0 mg/kg/injection, schedule: Q01DX005 (ip), vehicle: saline.
Setting [5] is: dose: 120.0 mg/kg/injection, schedule: Q01DX005 (ip), vehicle: saline.
[6] abbreviates: dose: 240.0 mg/kg/injection, schedule: Q01DX005 (ip), vehicle: saline.
Where [7] appears, read: dose: 100.0 mg/kg/injection, schedule: Q04DX003 (ip), vehicle: saline with Tween-80.
Where [8] appears, read: dose: 200.0 mg/kg/injection, schedule: Q04DX003 (ip), vehicle: saline with Tween-80.
Setting [9] is: dose: 400.0 mg/kg/injection, schedule: Q04DX003 (ip), vehicle: saline with Tween-80.
Setting [10] is: dose: 50.0 mg/kg/injection, schedule: Q01DX005 (ip), vehicle: saline with Tween-80.
Setting [11] is: dose: 50.0 mg/kg/injection, schedule: Q01DX009 (ip), vehicle: saline.
The mark [12] stands for this setting: dose: 100.0 mg/kg/injection, schedule: Q01DX005 (ip), vehicle: saline with Tween-80.
[13] abbreviates: dose: 100.0 mg/kg/injection, schedule: Q01DX009 (ip), vehicle: saline.
The mark [14] stands for this setting: dose: 200.0 mg/kg/injection, schedule: Q01DX005 (ip), vehicle: saline with Tween-80.
[15] abbreviates: dose: 200.0 mg/kg/injection, schedule: Q01DX009 (ip), vehicle: saline.
The mark [16] stands for this setting: dose: 100.0 mg/kg/injection, schedule: Q04DX003 (ip), vehicle: saline.
Where [17] appears, read: dose: 200.0 mg/kg/injection, schedule: Q04DX003 (ip), vehicle: saline.
Where [18] appears, read: dose: 400.0 mg/kg/injection, schedule: Q04DX003 (ip), vehicle: saline.
Where [19] appears, read: dose: 100.0 mg/kg/injection, schedule: Q01DX009 (ip), vehicle: saline with Tween-80.
The mark [20] stands for this setting: dose: 200.0 mg/kg/injection, schedule: Q01DX009 (ip), vehicle: saline with Tween-80.
The mark [21] stands for this setting: dose: 100.0 mg/kg/injection, schedule: Q04DX002 (ip), vehicle: saline.
[22] abbreviates: dose: 50.0 mg/kg/injection, schedule: Q01DX009 (ip), vehicle: saline with Tween-80.
Where [23] appears, read: dose: 50.0 mg/kg/injection, schedule: Q01DX005 (ip), vehicle: Klucel (hydroxypropylcellulose) (HPC).
Setting [24] is: dose: 100.0 mg/kg/injection, schedule: Q01DX005 (ip), vehicle: Klucel (hydroxypropylcellulose) (HPC).
[25] abbreviates: dose: 200.0 mg/kg/injection, schedule: Q01DX005 (ip), vehicle: Klucel (hydroxypropylcellulose) (HPC).

Consider `COc1cc(C(c2cc3c(cc2O)OCO3)N2CCCC2)cc(OC)c1OC` (centres undefined), for which the T/C runs as follows: under setting [1], 118 % of control; under setting [2], 106 % of control; under setting [3], 101 % of control.
Regarding `O=C(Nc1cccc(C(=O)Nc2ccc(S(=O)(=O)O)c3cc(S(=O)(=O)O)cc(S(=O)(=O)O)c23)c1)Nc1cccc(C(=O)Nc2cccc3c(S(=O)(=O)O)c(S(=O)(=O)O)cc(S(=O)(=O)O)c23)c1`, the T/C is, setting by setting: under setting [4], 88 % of control; under setting [5], 99 % of control; under setting [6], 93 % of control.
Turning to `COc1ccc2c(c1)CC[C@@H]1[C@@H]2CC[C@]2(C)/C(=N\O)CC[C@@H]12`, the T/C under setting [7] was 90 % of control, the T/C under setting [8] was 90 % of control and the T/C under setting [9] was 100 % of control.
With `NC(CS)C(=O)O` (centres undefined), the T/C reads like this: under setting [10], 101 % of control; under setting [11], 115 % of control; under setting [12], 107 % of control; under setting [13], 110 % of control; under setting [14], 110 % of control; under setting [15], 109 % of control.
As to `Cc1cc2nnc(C)n2c(C)n1`, the T/C is, setting by setting: under setting [16], 95 % of control; under setting [17], 96 % of control; under setting [18], 93 % of control.
With `CCOc1c(N=Nc2ccccc2C)c(C)nn1C(=S)S`, the T/C was 97 % of control under setting [1], 95 % of control under setting [2] and 97 % of control under setting [3].
`O=C(CCc1ccccc1C(=O)O)c1ccccc1O`: the T/C was 94 % of control under setting [10], 105 % of control under setting [12] and 93 % of control under setting [14].
As to `CNC(=S)N/N=C(\C=N\NC(=S)NC)c1ccc(C)cc1`, the T/C is 98 % of control (dose: 50.0 mg/kg/injection, schedule: Q01DX009 (ip), vehicle: Klucel (hydroxypropylcellulose) (HPC)); 98 % of control (dose: 100.0 mg/kg/injection, schedule: Q01DX009 (ip), vehicle: Klucel (hydroxypropylcellulose) (HPC)); 90 % of control (dose: 200.0 mg/kg/injection, schedule: Q01DX009 (ip), vehicle: Klucel (hydroxypropylcellulose) (HPC)); 90 % of control (dose: 400.0 mg/kg/injection, schedule: Q01DX009 (ip), vehicle: Klucel (hydroxypropylcellulose) (HPC)).
On to `CC1(C)OC(=O)N=C1c1ccc(F)cc1`, for which the T/C reads like this: under setting [1], 102 % of control; under setting [2], 107 % of control; under setting [3], 111 % of control.
For `CCCCCCCCC(=O)CC`, the T/C was 118 % of control under setting [19]; 104 % of control under setting [16]; 109 % of control under setting [20]; 100 % of control under setting [17]; 95 % of control under setting [18].
Turning to `CC(C)(C)c1cc(/C=C2/OC(=O)c3ccccc32)cc(C(C)(C)C)c1O`, the T/C under setting [21] is 99 % of control; the T/C (dose: 200.0 mg/kg/injection, schedule: Q04DX002 (ip), vehicle: saline) was 100 % of control; the T/C (dose: 400.0 mg/kg/injection, schedule: Q04DX002 (ip), vehicle: saline) was 96 % of control.
Take `CCCCCCCCCCCCCCCCCCSC1=CC(=O)c2ccccc2C1=O`: the T/C was 95 % of control (dose: 3.13 mg/kg/injection, schedule: Q01DX009 (ip), vehicle: saline with Tween-80); 95 % of control (dose: 6.25 mg/kg/injection, schedule: Q01DX009 (ip), vehicle: saline with Tween-80); 90 % of control (dose: 12.5 mg/kg/injection, schedule: Q01DX009 (ip), vehicle: saline with Tween-80); 89 % of control (dose: 25.0 mg/kg/injection, schedule: Q01DX009 (ip), vehicle: saline with Tween-80); 97 % of control under setting [22].
For the compound `O=C(N1CCC(CCN2CCCC2)CC1)C(O)(c1ccccc1)c1ccccc1`, the T/C is, setting by setting: (dose: 25.0 mg/kg/injection, schedule: Q04DX002 (ip), vehicle: saline) 107 % of control; (dose: 50.0 mg/kg/injection, schedule: Q04DX002 (ip), vehicle: saline) 107 % of control; under setting [21], 106 % of control and 97 % of control.
On to `Cc1cc(Cl)ccc1NC(=O)/N=C1\NC(=O)CS1`, for which the T/C under setting [22] was 87 % of control, the T/C under setting [19] was 100 % of control and the T/C under setting [20] was 110 % of control.
As to `Cc1nc2sccc2c(=O)n1C`, the T/C by setting is: under setting [23], 97 % of control; under setting [24], 98 % of control; under setting [25], 103 % of control.
As for `Cc1ccc(C2OC3=C(Nc4ccc([N+](=O)[O-])cc4N3)C2=O)cc1` (centres undefined), the T/C under setting [1] was 90 % of control, the T/C under setting [2] is 93 % of control and the T/C under setting [3] is 96 % of control.
As for `Cc1cc(OCC(=O)N/N=C/c2ccc(N(CCCl)CCCl)cc2)c2ccc(Cl)cc2n1`, the T/C under setting [11] is 95 % of control and 97 % of control; the T/C under setting [13] is 97 % of control; the T/C under setting [15] is 101 % of control and 87 % of control.
Turning to `CCC(CC)C1SCC(=O)N1c1nncs1` (centres undefined), the T/C is 99 % of control under setting [10], 105 % of control under setting [12] and 102 % of control under setting [14].
On to `COc1cc2ccc1-c1cc(ccc1O)CC1c3cc4c(cc3CCN1C)Oc1c(OC)cc3c(c1O4)C(C2)N(C)CC3` (centres undefined), for which the T/C by setting is: (dose: 7.5 mg/kg/injection, schedule: Q01DX005 (ip), vehicle: Klucel (hydroxypropylcellulose) (HPC)) 99 % of control; (dose: 15.0 mg/kg/injection, schedule: Q01DX005 (ip), vehicle: Klucel (hydroxypropylcellulose) (HPC)) 99 % of control; (dose: 30.0 mg/kg/injection, schedule: Q01DX005 (ip), vehicle: Klucel (hydroxypropylcellulose) (HPC)) 92 % of control; under setting [1], 104 % of control.
Regarding `COC(=O)CNP(=O)(NCC(=O)OC)N(CCCl)CCCl`, the T/C was 102 % of control (dose: 30.0 mg/kg/injection, schedule: Q01DX005 (ip), vehicle: saline); 115 % of control under setting [4]; 153 % of control and 161 % of control under setting [5]; 161 % of control and 238 % of control under setting [6].
On to `OCCN1CCSC1=S`, for which the T/C was 95 % of control under setting [22], 90 % of control under setting [19] and 100 % of control under setting [20].
Turning to `CSC(=S)n1nc(-c2cccs2)c(N=Nc2ccccc2)c1C(F)(F)F`, the T/C was 102 % of control (dose: 7.5 mg/kg/injection, schedule: Q01DX005 (ip), vehicle: saline with Tween-80); 112 % of control (dose: 15.0 mg/kg/injection, schedule: Q01DX005 (ip), vehicle: saline with Tween-80); 112 % of control (dose: 30.0 mg/kg/injection, schedule: Q01DX005 (ip), vehicle: saline with Tween-80).
Consider `Oc1ccc2ccccc2c1/C=C/c1ccc2c(Br)cc(Br)c(O)c2n1`, for which the T/C reads like this: under setting [10], 99 % of control; under setting [12], 106 % of control; under setting [14], 88 % of control.
Turning to `CCOC(=O)C(Cc1ccc(N)cc1)N1C(=O)c2ccccc2C1=O` (centres undefined), the T/C is 100 % of control (dose: 50.0 mg/kg/injection, schedule: Q01DX009 (ip), vehicle: distilled water + Tween-80 + alcohol); 95 % of control (dose: 100.0 mg/kg/injection, schedule: Q01DX009 (ip), vehicle: distilled water + Tween-80 + alcohol); 91 % of control (dose: 200.0 mg/kg/injection, schedule: Q01DX009 (ip), vehicle: distilled water + Tween-80 + alcohol).
For the compound `Cc1ccccc1N1C(=O)C(C)(C)OC1=S`, the T/C is 97 % of control under setting [10], 99 % of control under setting [12] and 103 % of control under setting [14].
With `c1ccc2sc(SN3CCOCC3)nc2c1`, the T/C is 87 % of control under setting [7], 100 % of control under setting [8] and 95 % of control under setting [9].
As for `CC(C)(CCl)C(=O)NN=C(c1ccccc1)c1ccccc1`, the T/C reads like this: under setting [22], 107 % of control; under setting [19], 107 % of control; under setting [20], 110 % of control.
In the case of `CCN1COc2ccc3ccc4c(c3c2C1)CN(CC)CO4`, the T/C reads like this: under setting [23], 101 % of control; under setting [24], 101 % of control; under setting [25], 102 % of control.
